Reference: the NIST ThermoML archive (doi:10.1016/j.tca.2008.10.023)
“And” between values parts separate entries of the source, which are not always exact repeats. Equal values may be shown once. Numbers after ± are expanded uncertainties.

Test: cn = amount concentration of the nth substance listed, in mol/dm3
Settings: 101 kPa, Liquid, c1 = 2; for speed of sound: Linear variable-path acoustic interferometer; for mass density: Pycnometric method

Structure (SMILES) | speed of sound (298.15 K) | mass density (298.15 K) | speed of sound (303.15 K) | mass density (303.15 K) | speed of sound (308.15 K) | mass density (308.15 K) | speed of sound (313.15 K) | mass density (313.15 K) | speed of sound (318.15 K) | mass density (318.15 K) | speed of sound (323.15 K) | mass density (323.15 K)
O=[N+]([O-])[O-].[K+] [potassium nitrate] + O | 1562 ± 1.7 m/s | 1122.9 ± 0.4 kg/m3 | 1569.4 ± 1.8 m/s | 1120.6 ± 0.4 kg/m3 | 1575.8 ± 1.8 m/s and 1575 ± 1.8 m/s | 1118 ± 0.4 kg/m3 | 1580 ± 1.8 m/s | 1115 ± 0.4 kg/m3 | 1584.6 ± 1.8 m/s and 1584.5 ± 1.8 m/s | 1111.8 ± 0.5 kg/m3 | 1588.9 ± 1.8 m/s and 1588.8 ± 1.8 m/s | 1108.2 ± 0.5 kg/m3
[Cl-].[K+] [potassium chloride] + O | 1595.2 ± 1.8 m/s | 1089.1 ± 0.4 kg/m3 | 1605.9 ± 1.8 m/s | 1087.5 ± 0.4 kg/m3 | 1610.2 ± 1.8 m/s | 1085.6 ± 0.4 kg/m3 | 1616.4 ± 1.8 m/s | 1083.4 ± 0.4 kg/m3 | 1621.4 ± 1.8 m/s | 1080.9 ± 0.4 kg/m3 | 1626.5 ± 1.8 m/s | 1078.3 ± 0.5 kg/m3
